Assay results reported in patent US20230242530A1, “8-(AZETIDIN-1-YL)-[1,2,4]TRIAZOLO[1,5-A]PYRIDINYL COMPOUNDS, COMPOSITIONS AND METHODS OF USE THEREOF” (Genentech, Inc., priority 2016, published 2023).

How the values were obtained:
[1] = target: T1, isolated recombinant JAK2 kinase domain (Homo sapiens, UniProt O60674); experiment: JAK enzyme assay, JAK2 kinase domain (Caliper LabChip); type: biochemical; conditions: 0.2 nM JAK2, ATP 25 μM, Morrison tight binding model
T1 construct: isolated recombinant JAK1 and JAK2 kinase domain
Protocol: (§1) JAK Enzyme Assays were Carried Out as Follows:
(§2) The activity of the isolated recombinant JAK1 and JAK2 kinase domain was measured by monitoring phosphorylation of a peptide derived from JAK3 (Val-Ala-Leu-Val-Asp-Gly-Tyr-Phe-Arg-Leu-Thr-Thr, fluorescently labeled on the N-terminus with 5-carboxyfluorescein) using the Caliper LabChip® technology (Caliper Life Sciences, Hopkinton, Mass.). […] Reactions were incubated at 22 °C in 384-well polypropylene microtiter plates for 30 minutes and then stopped by addition of 25 μL of an EDTA containing solution (100 mM HEPES buffer (pH 7.2), 0.015% Brij-35, 150 mM EDTA), resulting in a final EDTA concentration of 50 mM. After termination of the kinase reaction, the proportion of phosphorylated product was determined as a fraction of total peptide substrate using the Caliper LabChip® 3000 according to the manufacturer's specifications. Ki values were then determined using the Morrison tight binding model (Morrison, J. F., Biochim. Biophys. Acta. 185:269-296 (1969); William, J. W. and Morrison, J. F., Meth. Enzymol., 63:437-467 (1979)) modified for ATP-competitive inhibition [Ki=Ki,app/(1+[ATP]/Km,app)].

[2] = target: T2, isolated recombinant JAK1 kinase domain (Homo sapiens, UniProt P23458); experiment: JAK enzyme assay, JAK1 kinase domain (Caliper LabChip); type: biochemical; conditions: 1.5 nM JAK1, ATP 25 μM, Morrison tight binding model
T2 construct: isolated recombinant JAK1 and JAK2 kinase domain
Protocol: as §1, §2

[3] = system: JAK1-dependent STAT6 phosphorylation downstream of IL-13 stimulation in BEAS-2B cells; experiment: JAK1 pathway assay in cell lines: IL-13 p-STAT6 BEAS-2B; type: cell-based; conditions: BEAS-2B human bronchial epithelial cells, 1 hr compound, IL-13 15 min, MSD readout
Protocol: JAK1 Pathway Assay in Cell Lines was Carried Out as Follows:
Inhibitor potency (EC50) was determined in cell-based assays designed to measure JAK1 dependent STAT phosphorylation. As noted above, inhibition of IL-4, IL-13, and IL-9 signalling by blocking the Jak/Stat signaling pathway can alleviate asthmatic symptoms in pre-clinical lung inflammation models (Mathew et al., 2001, J Exp Med 193(9): 1087-1096; Kudlacz et. al., 2008, Eur J. Pharmacol 582(1-3): 154-161).
In one assay approach, TF-1 human erythroleukemia cells obtained from the American Type Culture Collection (ATCC; Manassas, Va.) were used to measure JAK1-dependent STAT6 phosphorylation downstream of IL-13 stimulation. Prior to use in the assays, TF-1 cells were starved of GM-CSF overnight in OptiMEM medium (Life Technologies, Grand Island, N.Y.) supplemented with 0.5% charcoal/dextran stripped fetal bovine serum (FBS), 0.1 mM non-essential amino acids (NEAA), and 1 mM sodium pyruvate. The assays were run in 384-well plates in serum-free OptiMEM medium using 300,000 cells per well. In a second assay approach, BEAS-2B human bronchial epithelial cells obtained from ATCC were plated at 100,000 cells per well of a 96-well plate one day prior to the experiment. The BEAS-2B assay was run in complete growth medium (bronchial epithelial basal medium plus bulletkit; Lonza; Basel, Switzerland).
Test compounds were serially diluted 1:2 in DMSO and then diluted 1:50 in medium just before use. Diluted compounds were added to the cells, for a final DMSO concentration of 0.2%, and incubated for 30 mi (for the TF-1 assay) or 1 hr (for the BEAS-2B assay) at 37 QC. Then, cells were stimulated with human recombinant cytokine at their respective EC90 concentrations, as previously determined for each individual lot. Cells were stimulated with IL-13 (R&D Systems, Minneapolis, Minn.) for 15 min at 37 °C. The TF-1 cell reactions were stopped by the direct addition of 10× lysis buffer (Cell Signaling Technologies, Danvers, Mass.), whereas the BEAS-2B cell incubations were halted by the removal of medium and addition of 1× lysis buffer. The resultant samples were frozen in the plates at −80 °C. Compound mediated inhibition of STAT6 phosphorylation was measured in the cell lysates using MesoScale Discovery (MSD) technology (Gaithersburg, Md.). EC50 values were determined as the concentration of compound required for 50% inhibition of STAT phosphorylation relative to that measured for the DMSO control.

T1 sequence (O60674 849-1124 limits assumed): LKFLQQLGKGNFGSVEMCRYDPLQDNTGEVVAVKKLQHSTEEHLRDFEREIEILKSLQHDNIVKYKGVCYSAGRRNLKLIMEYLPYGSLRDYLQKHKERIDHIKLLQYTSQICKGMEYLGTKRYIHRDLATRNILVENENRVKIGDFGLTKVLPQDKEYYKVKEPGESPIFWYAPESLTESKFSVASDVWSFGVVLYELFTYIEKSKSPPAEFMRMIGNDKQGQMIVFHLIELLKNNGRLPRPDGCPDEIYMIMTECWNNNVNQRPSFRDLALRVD
T2 sequence (P23458 875-1153 limits assumed): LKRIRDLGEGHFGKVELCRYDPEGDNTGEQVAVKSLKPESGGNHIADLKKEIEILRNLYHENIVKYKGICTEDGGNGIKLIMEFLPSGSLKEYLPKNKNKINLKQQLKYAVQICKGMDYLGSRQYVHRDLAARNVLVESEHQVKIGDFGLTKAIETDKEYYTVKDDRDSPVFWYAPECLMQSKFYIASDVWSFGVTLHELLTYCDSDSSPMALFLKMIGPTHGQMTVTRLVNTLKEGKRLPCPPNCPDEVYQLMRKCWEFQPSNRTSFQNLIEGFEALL

Compound | Ki [1] [nM] | Ki [2] [nM] | EC50 [3] [nM]
CN1CCN(C(=O)Cn2cc(Nc3nc4c(N5CC(CC#N)(n6cc(C7CCCC7)cn6)C5)cccn4n3)cn2)CC1 [Example 49, 2-[3-(4-cyclopentylpyrazol-1-yl)-1-[2-[[1-[2-(4-methylpiperazin-1-yl)-2-oxo-ethyl]pyrazol-4-yl]amino]-[1,2,4]triazolo[1,5-a]pyridin-8-yl]azetidin-3-yl]acetonitrile] | 2.4 | 0.6 | 30
CN1CCN(C(=O)Cn2cc(Nc3nc4c(N5CC(CC#N)(n6cc(C(F)(F)F)cn6)C5)cccn4n3)cn2)CC1 [Example 15] | 9.4 | 2.2 | > 1000
CN1CCN(C(=O)Cn2cc(Nc3nc4c(N5CC(CC#N)(n6cc(I)cn6)C5)cccn4n3)cn2)CC1 [Example 89, 2-[3-(4-iodopyrazol-1-yl)-1-[2-[[1-[2-(4-methylpiperazin-1-yl)-2-oxo-ethyl]pyrazol-4-yl]amino]-[1,2,4]triazolo[1,5-a]pyridin-8-yl]azetidin-3-yl]acetonitrile] | 18.8 | 6.4 | –
CN1CCN(C(=O)Cn2cc(Nc3nc4c(N5CC(CC#N)(n6cc(Br)cn6)C5)cccn4n3)cn2)CC1 [Example 6, 2-[3-(4-bromo-1H-pyrazol-1-yl)-1-[2-([1-[2-(4-methylpiperazin-1-yl)-2-oxoethyl]-1H-pyrazol-4-yl]amino)-[1,2,4]triazolo[1,5-a]pyridin-8-yl]azetidin-3-yl]acetonitrile] | 15.7 | 9.5 | –
CCc1cnn(C2(CC#N)CN(c3nccn4nc(Nc5cn[nH]c5)nc34)C2)c1 [Example 153, 2-(1-(2-((1H-pyrazol-4-yl)amino)-[1,2,4]triazolo[1,5-a]pyrazin-8-yl)-3-(4-ethyl-1H-pyrazol-1-yl)azetidin-3-yl)acetonitrile] | 15.5 | 9 | –
CN1CCN(C(=O)Cn2cc(Nc3nc4c(N5CC(CC#N)(c6ccc(Cl)cc6)C5)cccn4n3)cn2)CC1 [Example 7, 2-[3-(4-chlorophenyl)-1-[2-[[1-[2-(4-methylpiperazin-1-yl)-2-oxo-ethyl]pyrazol-4-yl]amino]-[1,2,4]triazolo[1,5-a]pyridin-8-yl]azetidin-3-yl]acetonitrile] | 50.4 | 37.2 | –
CCc1cnn(C2(CC#N)CN(c3cccn4nc(Nc5cn[nH]c5)nc34)C2)c1 [Example 2, 2-[3-(4-ethyl-1H-pyrazol-1-yl)-1-[2-[(1H-pyrazol-4-yl)amino]-[1,2,4]triazolo[1,5-a]pyridin-8-yl]azetidin-3-yl]acetonitrile] | 32.8 | 17.5 | –
CCc1cnn(C2(CC#N)CN(c3cccn4nc(Nc5cnn(CCCO)c5)nc34)C2)c1 [Example 3, 2-[3-(4-ethyl-1H-pyrazol-1-yl)-1-(2-[[1-(3-hydroxypropyl)-1H-pyrazol-4-yl]amino]-[1,2,4]triazolo[1,5-a]pyridin-8-yl)azetidin-3-yl]acetonitrile] | 64 | 40.2 | –

Stronger by Ki [1], values ahead:

Ki [1] [nM] | Ki [2] [nM] | Compound | EC50 [3] [nM]
2.1 | 0.4 | CN1CCN(C(=O)Cn2cc(Nc3nc4c(N5CC(CC#N)(Cc6ccccc6)C5)cccn4n3)cn2)CC1 [Example 26, 2-[3-benzyl-1-[2-[[1-[2-(4-methylpiperazin-1-yl)-2-oxo-ethyl]pyrazol-4-yl]amino]-[1,2,4]triazolo[1,5-a]pyridin-8-yl]azetidin-3-yl]acetonitrile] | 42
2 | 1.8 | CCc1cnn(C2(CC#N)CN(c3cccn4nc(Nc5ccc6c(c5)CCN(C)C6)nc34)C2)c1 [Example 50, 2-[3-(4-ethylpyrazol-1-yl)-1-[2-[(2-methyl-3,4-dihydro-1H-isoquinolin-6-yl)amino]-[1,2,4]triazolo[1,5-a]pyridin-8-yl]azetidin-3-yl]acetonitrile] | 65
1.6 | 0.4 | CCc1cnn(C2(CC#N)CN(c3cccn4nc(Nc5ccc(C(=O)N6CCC(N7CCOCC7)CC6)cc5)nc34)C2)c1 [Example 36, 2-[3-(4-ethylpyrazol-1-yl)-1-[2-[4-(4-morpholinopiperidine-1-carbonyl)anilino]-[1,2,4]triazolo[1,5-a]pyridin-8-yl]azetidin-3-yl]acetonitrile] | 52
1.6 | 0.7 | CC(C)Sc1cnn(C2(CC#N)CN(c3cccn4nc(Nc5cnn(CC(=O)N6CCN(C)CC6)c5)nc34)C2)c1 [Example 105, 2-[3-(4-isopropylsulfanylpyrazol-1-yl)-1-[2-[[1-[2-(4-methylpiperazin-1-yl)-2-oxo-ethyl]pyrazol-4-yl]amino]-[1,2,4]triazolo[1,5-a]pyridin-8-yl]azetidin-3-yl]acetonitrile] | 42
1 | 0.3 | COCCN1CCN(C(=O)Cn2cc(Nc3nc4c(N5CC(CC#N)(n6cc(C(F)(F)F)cn6)C5)cccn4n3)cn2)CC1 [Example 94] | 54
0.6 | 0.2 | CN1CCN(C(=O)Cn2cc(Nc3nc4c(N5CC(CC#N)(n6cc(-c7ccccc7F)cn6)C5)cccn4n3)cn2)CC1 [Example 77, 2-[3-[4-(2-fluorophenyl)pyrazol-1-yl]-1-[2-[[1-[2-(4-methylpiperazin-1-yl)-2-oxo-ethyl]pyrazol-4-yl]amino]-[1,2,4]triazolo[1,5-a]pyridin-8-yl]azetidin-3-yl]acetonitrile] | 17
0.5 | 0.3 | CCc1cnn(C2(CC#N)CN(c3cccn4nc(Nc5cnn(CC(=O)N6CCN(CCCC#N)CC6)c5)nc34)C2)c1 [Example 68, 4-[4-[2-[4-[[8-[3-(cyanomethyl)-3-(4-ethylpyrazol-1-yl)azetidin-1-yl]-[1,2,4]triazolo[1,5-a]pyridin-2-yl]amino]pyrazol-1-yl]acetyl]piperazin-1-yl]butanenitrile] | 14
0.4 | 0.1 | CCc1cnn(C2(CC#N)CN(c3cccn4nc(Nc5cnn(CC(F)F)c5)nc34)C2)c1 [Example 148, 2-[1-[2-[[1-(2,2-difluoroethyl)pyrazol-4-yl]amino]-[1,2,4]triazolo[1,5-a]pyridin-8-yl]-3-(4-ethylpyrazol-1-yl)azetidin-3-yl]acetonitrile] | 8
0.3 | 0.4 | CCc1cnn(C2(CC#N)CN(c3cccn4nc(Nc5cnn(CC(=O)N6CCN(CCNC(=O)CC78CC9CC(CC(C9)C7)C8)CC6)c5)nc34)C2)c1 [Example 58, 2-(l-adamantyl)-N-[2-[4-[2-[4-[[8-[3-(cyanomethyl)-3-(4-ethylpyrazol-1-yl)azetidin-1-yl]-[1,2,4]triazolo[1,5-a]pyridin-2-yl]amino]pyrazol-1-yl]acetyl]piperazin-1-yl]ethyl]acetamide] | 13
0.3 | 0.2 | Cn1cc(Nc2nc3c(N4CC(CC#N)(n5cc(OC(F)F)cn5)C4)cccn3n2)cn1 [Example 145, 2-[3-[4-(difluoromethoxy)pyrazol-1-yl]-1-[2-[(l-methylpyrazol-4-yl)amino]-[1,2,4]triazolo[1,5-a]pyridin-8-yl]azetidin-3-yl]acetonitrile] | 6
0.1 | 0.7 | CCc1cnn(C2(CC#N)CN(c3cccn4nc(Nc5cnn[nH]5)nc34)C2)c1 [Example 152, 2-(1-(2-((1H-1,2,3-triazol-5-yl)amino)-[1,2,4]triazolo[1,5-a]pyridin-8-yl)-3-(4-ethyl-1H-pyrazol-1-yl)azetidin-3-yl)acetonitrile] | 5
